# Results as given in Sander's compilation of Henry's law constants.
# What was measured:
# [1] = Henry solubility constant Hcp at 298.15 K (mol/(m3 Pa))
# [2] = Henry solubility constant Hcp at 293 K (mol/(m3 Pa))
# [3] = Henry solubility constant Hcp at 310 K (mol/(m3 Pa)); conditions: reference: Ercan (1979)
# [4] = reference: Bamford et al. (1999b)
# [5] = reference: De Maagd et al. (1998)
# [6] = reference: Munz and Roberts (1987)
# [7] = reference: Pearson and McConnell (1975)
# [8] = reference: Sheikheldin et al. (2001)
# [9] = reference: Bissonette et al. (1990)
# [10] = reference: Warner et al. (1980)
# [11] = reference: Chiang et al. (1998)
# [12] = reference: Yurteri et al. (1987)
# [13] = reference: Kames and Schurath (1995)
structure (smiles),measurement,setting,value
CN(C)N=O [N-nitrosodimethylamine],Henry solubility constant Hcp,[1]; reference: Klein (1982),6.1
same,Henry solubility constant Hcp,[1]; reference: Thompson et al. (2018),0.29
same,Henry solubility constant Hcp at 293 K,[2]; reference: Haruta et al. (2011),4.1
OCl [hypochlorous acid],Henry solubility constant Hcp,[1]; reference: Hanson and Ravishankara (1991),4.7
same,Henry solubility constant Hcp,[1]; reference: Holzwarth et al. (1984),6
same,Henry solubility constant Hcp,[1]; reference: Imagawa (1950),12
same,Henry solubility constant Hcp,[1]; reference: Ourisson and Kastner (1939),6.4
same,Henry solubility constant Hcp at 293 K,[2]; reference: Blatchley et al. (1992),9.1
same,Henry solubility constant Hcp at 293 K,[2]; reference: McCoy et al. (1990),9
c1ccc2c(c1)ccc1ccccc12 [phenanthrene],Henry solubility constant Hcp,[1]; reference: Alaee et al. (1996),0.21
same,Henry solubility constant Hcp,[1]; [4],0.16
same,Henry solubility constant Hcp,[1]; reference: Mackay et al. (1979),0.25
same,Henry solubility constant Hcp,[1]; reference: Odabasi et al. (2006),0.27
same,Henry solubility constant Hcp,[1]; reference: Southworth (1979),0.18
same,Henry solubility constant Hcp at 293 K,[2]; [5],0.34
[134Xe] [xenon-133],Henry solubility constant Hcp at 310 K,[3],3.2e-05
FC(F)(Cl)Cl [dichlorodifluoromethane],Henry solubility constant Hcp,[1]; [6],3.1e-05
same,Henry solubility constant Hcp,[1]; reference: Park et al. (1982),2.9e-05
same,Henry solubility constant Hcp,[1]; reference: Reichl (1995),3e-05
same,Henry solubility constant Hcp,[1]; reference: Scharlin and Battino (1994),2.9e-05
same,Henry solubility constant Hcp,[1]; reference: Scharlin and Battino (1995),2.9e-05
same,Henry solubility constant Hcp,[1]; reference: Warner and Weiss (1985),2.9e-05
same,Henry solubility constant Hcp at 293 K,[2]; [7],2.5e-05
Oc1ccccc1Cl [2-hydroxychlorobenzene],Henry solubility constant Hcp,[1]; reference: Tabai et al. (1997),3.6
same,Henry solubility constant Hcp at 293 K,[2]; [8],1.5
OO [hydrogen peroxide],Henry solubility constant Hcp,[1]; reference: Huang and Chen (2010),1100
same,Henry solubility constant Hcp,[1]; reference: Hwang and Dasgupta (1985),670
same,Henry solubility constant Hcp,[1]; reference: Lind and Kok (1994),990
same,Henry solubility constant Hcp,[1]; reference: O’Sullivan et al. (1996),820
same,Henry solubility constant Hcp,[1]; reference: Rivera-Rios (2018),1200
same,Henry solubility constant Hcp,[1]; reference: Zhou and Lee (1992),850
same,Henry solubility constant Hcp at 293 K,[2]; reference: Yoshizumi et al. (1984),1400
ClC(Cl)(Cl)Cl [tetrachloromethane],Henry solubility constant Hcp,[1]; reference: Balls (1980),0.00032
same,Henry solubility constant Hcp,[1]; [9],0.00028
same,Henry solubility constant Hcp,[1]; reference: Bullister and Wisegarver (1998),0.00029
same,Henry solubility constant Hcp,[1]; reference: Chen et al. (2012),0.0003
same,Henry solubility constant Hcp,[1]; reference: Gossett (1987),0.00033
same,Henry solubility constant Hcp,[1]; reference: Hartkopf and Karger (1973),0.00037
same,Henry solubility constant Hcp,[1]; reference: Hunter-Smith et al. (1983),0.00041
same,Henry solubility constant Hcp,[1]; reference: Lutsyk et al. (2005),0.00034
same,Henry solubility constant Hcp,[1]; reference: Munz and Roberts (1986),0.00042
same,Henry solubility constant Hcp,[1]; [6],0.00033
same,Henry solubility constant Hcp,[1]; reference: Park et al. (1997),0.00039
same,Henry solubility constant Hcp,[1]; reference: Tancrède and Yanagisawa (1990),0.00034
same,Henry solubility constant Hcp,[1]; [10],0.00033
same,Henry solubility constant Hcp at 293 K,[2]; [11],0.0004
same,Henry solubility constant Hcp at 293 K,[2]; [7],0.00045
same,Henry solubility constant Hcp at 293 K,[2]; [12],0.00043
"Clc1ccc(Cl)cc1 [1,4-dichlorobenzene]",Henry solubility constant Hcp,[1]; reference: Li et al. (2008),0.0033
same,Henry solubility constant Hcp,[1]; [10],0.0036
same,Henry solubility constant Hcp at 293 K,[2]; [11],0.0025
same,Henry solubility constant Hcp at 293 K,[2]; [12],0.0052
CCSSCC [diethyl disulfide],Henry solubility constant Hcp,[1]; reference: Schuhfried et al. (2011),0.0037
same,Henry solubility constant Hcp at 293 K,[2]; reference: Vitenberg et al. (1975),0.0047
ClC(Cl)=C(Cl)C(Cl)=C(Cl)Cl [hexachlorobutadiene],Henry solubility constant Hcp,[1]; [10],0.00096
same,Henry solubility constant Hcp at 293 K,[2]; [7],0.0004
CCC(=O)OO[N+](=O)[O-] [peroxypropionyl nitrate],Henry solubility constant Hcp,[1]; reference: Easterbrook et al. (2023),0.016
same,Henry solubility constant Hcp at 293 K,[2]; [13],0.029
"c1ccc2c(c1)Cc1ccccc1-2 [2,3-benzindene]",Henry solubility constant Hcp,[1]; [4],0.079
same,Henry solubility constant Hcp,[1]; [10],0.084
same,Henry solubility constant Hcp at 293 K,[2]; [5],0.15
NCCO [ethanolamine],Henry solubility constant Hcp,[1]; reference: Kim et al. (2008),4200
same,Henry solubility constant Hcp at 293 K,[2]; reference: Bone et al. (1983),60000
"Cc1cccc(O)c1C [1-hydroxy-2,3-dimethylbenzene]",Henry solubility constant Hcp,[1]; reference: Dohnal and Fenclová (1995),10
same,Henry solubility constant Hcp at 293 K,[2]; [8],9.3
CC(C)C(=O)OO[N+](=O)[O-] [peroxy-isobutyryl nitrate],Henry solubility constant Hcp at 293 K,[2]; [13],0.0099
"COP(=O)(OC)OC [phosphoric acid, trimethyl ester]",Henry solubility constant Hcp at 293 K,[2]; reference: Wolfenden and Williams (1983),1400
"C=C(Cl)Cl [1,1-dichloroethene]",Henry solubility constant Hcp,[1]; [9],0.00034
same,Henry solubility constant Hcp,[1]; reference: Ervin et al. (1980),0.00014
same,Henry solubility constant Hcp,[1]; reference: Gossett (1987),0.00038
same,Henry solubility constant Hcp,[1]; [10],0.00066
same,Henry solubility constant Hcp at 293 K,[2]; [11],0.00044
same,Henry solubility constant Hcp at 293 K,[2]; [7],6.6e-05
same,Henry solubility constant Hcp at 293 K,[2]; [12],0.00013
CCc1cccc(C)c1N(C(=O)CCl)C(C)COC (configuration not stated) [metolachlor],Henry solubility constant Hcp,[1]; reference: Feigenbrugel et al. (2004a),210
same,Henry solubility constant Hcp,[1]; reference: Lau et al. (1995),570
same,Henry solubility constant Hcp at 293 K,[2]; reference: Rice et al. (1997b),130
